{"source": "paper PMC3930709", "about": "“Selective Activation of hTRPV1 by N-Geranyl Cyclopropylcarboxamide, an Amiloride-Insensitive Salt Taste Enhancer” (PLoS ONE, 2014)", "key": {"hTRPA1 [1]": {"molecular_target": "T1, hTRPA1 (Homo sapiens, UniProt O75762)", "T1 construct": "expressed in transfected cells", "T1 sequence (O75762 whole entry)": "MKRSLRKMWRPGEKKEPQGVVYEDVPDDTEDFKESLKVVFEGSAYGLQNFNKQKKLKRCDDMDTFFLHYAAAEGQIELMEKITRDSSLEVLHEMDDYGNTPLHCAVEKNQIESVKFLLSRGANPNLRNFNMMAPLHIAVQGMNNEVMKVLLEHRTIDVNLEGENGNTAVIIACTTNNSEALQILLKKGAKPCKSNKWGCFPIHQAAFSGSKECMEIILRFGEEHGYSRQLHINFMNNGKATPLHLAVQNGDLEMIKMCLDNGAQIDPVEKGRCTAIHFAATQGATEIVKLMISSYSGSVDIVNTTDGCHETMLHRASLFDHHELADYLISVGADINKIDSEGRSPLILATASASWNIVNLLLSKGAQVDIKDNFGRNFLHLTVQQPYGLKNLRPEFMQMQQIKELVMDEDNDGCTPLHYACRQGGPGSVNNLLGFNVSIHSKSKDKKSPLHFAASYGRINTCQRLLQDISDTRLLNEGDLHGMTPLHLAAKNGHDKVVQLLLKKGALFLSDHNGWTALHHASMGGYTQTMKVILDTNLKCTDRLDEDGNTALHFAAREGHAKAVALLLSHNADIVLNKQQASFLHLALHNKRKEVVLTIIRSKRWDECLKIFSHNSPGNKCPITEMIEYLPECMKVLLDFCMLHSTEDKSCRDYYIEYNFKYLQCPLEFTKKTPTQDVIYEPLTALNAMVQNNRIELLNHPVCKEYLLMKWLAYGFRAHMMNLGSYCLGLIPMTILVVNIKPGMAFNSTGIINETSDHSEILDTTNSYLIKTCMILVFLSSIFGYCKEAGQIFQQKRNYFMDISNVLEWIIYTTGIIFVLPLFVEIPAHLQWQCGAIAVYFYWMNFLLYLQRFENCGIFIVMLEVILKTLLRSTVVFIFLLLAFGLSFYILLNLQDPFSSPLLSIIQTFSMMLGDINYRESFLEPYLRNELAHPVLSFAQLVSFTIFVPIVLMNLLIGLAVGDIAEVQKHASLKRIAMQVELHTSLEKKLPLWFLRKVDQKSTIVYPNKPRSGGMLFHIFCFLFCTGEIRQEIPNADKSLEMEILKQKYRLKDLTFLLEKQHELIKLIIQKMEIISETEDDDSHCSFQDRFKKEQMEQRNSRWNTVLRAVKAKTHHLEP", "experiment": "Whole-cell patch clamp recording, cells stably expressing hTRPA1", "type": "cell-based", "procedure": "(§1) Flp-In 293 cell lines stably expressing hTRPA1constructed as previously reported was a gift from the professor Takumi Misaka at University of Tokyo. The hTRPA1-expressing cells were cultured in DMEM containing 10% FBS and 0.02% hygromycin B (Invitrogen). Flp-In 293 cell lines were maintained in DMEM containing 10% FBS. All cells were incubated at 37°C in a humidified atmosphere of 5% CO2.\n(§2) The whole-cell configuration was used to voltage-clamp at room temperature (22–25°C). Electrodes pulled from glass micropipette capillaries (Sutter Instrument) had resistances of 2–2.5 MΩ, and series resistance errors were compensated >60%. Fast and slow capacitances were compensated before the application of test-pulse. Recordings were performed using aHEKAEPC-10 amplifier with pulse software (HEKA Elektronik). The pipette solution contained: 140 mM KCl, 5 mM MgCl2, 10 mM HEPES, 0.1 mM 1,2-bis(2-aminophenoxy) ethane N,N,N’,N’-tetraacetic acid(BAPTA), 3 mM Na2ATP, and 0.1 mM Na3GTP, adjusted to pH 7.4 with KOH. The external Ringer’s solution used for recording TRPV1 and TRPA1 currents contained: 150 mM NaCl, 5 mM KCl, 1 mM MgCl2, 2 mM EGTA, 10 mM Glucose, and 10 mM HEPES, adjusted to pH 7.4 with NaOH. TRPV1 and TRPA1 currents were recorded by holding the cell at −80 mV. The external Ringer’s solution used for recording ASIC current contained: 160 mM NaCl, 5 mM KCl, 1 mM MgCl2, 2 mM CaCl2, and 10 mM HEPES, adjusted to pH 7.4 with tetramethylammonium hydroxide. For acidic solution of pH 6.0, HEPES was replaced with MES. ASIC currents were recorded by holding the cell at −70 mV. Reagents were obtained as follows: BAPTA, Na2ATP, Na3GTP, EGTA, and tetramethylammonium hydroxide (Sigma), HEPES (Calbiochem), MES (Alfa Aesar), and other chemicals (Merck)."}, "hTRPA1 [2]": {"molecular_target": "T1, hTRPA1", "experiment": "Measurement of Ca2+ influx (Fluo-4 AM, FlexStation III) in hTRPA1-expressing cells", "type": "cell-based", "settings": "for block of NGCC activity on hTRPA1-expressing cells (dose-response): RR 30 µM, HC-030031 100 µM; for block of AITC activity on hTRPA1-expressing cells (dose-response): RR 30 µM: below 30 µM AITC, HC-030031 100 µM: below 10 µM AITC", "procedure": "as §1\n(§3) The ligand-induced changes on cytosolic Ca^2+ level were monitored by a FlexStation III microplate reader (Molecular Devices). Fluo-4 AM (5 µM, Molecular Probes, Eugene, OR, USA) in assay buffer was loaded to the cells in 96-well black-wall plates for 30 min at 27°C. After dye treatment, each chemical was added to each well at 17 s and changes on intracellular Ca^2+ level were monitored by relative fluorescence units (ΔRFU, Ex = 485 nm; Em = 516 nm) for 120 s. […] The responses from at least three wells receiving the same stimulus were averaged. Plots of amplitude versus concentration were fitted using the Hill equation."}, "hTRPA1 [3]": {"molecular_target": "T1, hTRPA1", "experiment": "Ca2+ imaging (Fura-2 AM) of hTRPA1-expressing Flp-In 293 cells", "type": "cell-based", "settings": "RR 30 µM, HC-030031 100 µM", "procedure": "Flp-In 293 cell lines stably expressing hTRPA1constructed as previously reported was a gift from the professor […] at University of Tokyo. The hTRPA1-expressing cells were cultured in DMEM containing 10% FBS and 0.02% hygromycin B (Invitrogen). Flp-In 293 cell lines were maintained in DMEM containing 10% FBS. All cells were incubated at 37°C in a humidified atmosphere of 5% CO2. […] Mock-transfected HEK293T cells, hTRPV1-expressing HEK293T cells, non-hTRPA1-expressing Flp-In 293 cells, and hTRPA1-expressing Flp-In 293 cells grown in 96-well black-wall plates were rinsed with assay buffer (130 mM NaCl, 10 mM glucose, 5 mM KCl, 2 […]2, 1.2 mM MgCl2, and 10 mM HEPES, pH 7.4) and loaded with 5 μM Fura-2 AM (Invitrogen) for 30 min at 27°C. The cells were washed with assay buffer and treated with ligands. […] The fluorescence intensities of Fura-2 excited at 340 and 380 nm were simultaneously measured at 510 nm using a computer-controlled filter changer (Lambda DG4; Sutter, San Rafael, CA, USA), an Andor Luca CCD camera (Andor Technology, Belfast, UK), and an inverted fluorescence microscope (IX-71; Olympus, Tokyo, Japan). Intracellular calcium images were recorded every 3-s for 60-s and analyzed using MetaFluor software (Molecular Devices, Sunnyvale, CA, USA)."}, "[4]": {"test_system": "Bz-insensitive NaCl CT response", "set-up": "method as in PMID 15146042", "settings": "rat CT recordings, cited from earlier work"}, "hTRPV1 [5]": {"molecular_target": "T2, hTRPV1 (Homo sapiens, UniProt Q8NER1)", "T2 construct": "expressed in transfected cells; host or cells: HEK293T", "T2 sequence (Q8NER1 whole entry)": "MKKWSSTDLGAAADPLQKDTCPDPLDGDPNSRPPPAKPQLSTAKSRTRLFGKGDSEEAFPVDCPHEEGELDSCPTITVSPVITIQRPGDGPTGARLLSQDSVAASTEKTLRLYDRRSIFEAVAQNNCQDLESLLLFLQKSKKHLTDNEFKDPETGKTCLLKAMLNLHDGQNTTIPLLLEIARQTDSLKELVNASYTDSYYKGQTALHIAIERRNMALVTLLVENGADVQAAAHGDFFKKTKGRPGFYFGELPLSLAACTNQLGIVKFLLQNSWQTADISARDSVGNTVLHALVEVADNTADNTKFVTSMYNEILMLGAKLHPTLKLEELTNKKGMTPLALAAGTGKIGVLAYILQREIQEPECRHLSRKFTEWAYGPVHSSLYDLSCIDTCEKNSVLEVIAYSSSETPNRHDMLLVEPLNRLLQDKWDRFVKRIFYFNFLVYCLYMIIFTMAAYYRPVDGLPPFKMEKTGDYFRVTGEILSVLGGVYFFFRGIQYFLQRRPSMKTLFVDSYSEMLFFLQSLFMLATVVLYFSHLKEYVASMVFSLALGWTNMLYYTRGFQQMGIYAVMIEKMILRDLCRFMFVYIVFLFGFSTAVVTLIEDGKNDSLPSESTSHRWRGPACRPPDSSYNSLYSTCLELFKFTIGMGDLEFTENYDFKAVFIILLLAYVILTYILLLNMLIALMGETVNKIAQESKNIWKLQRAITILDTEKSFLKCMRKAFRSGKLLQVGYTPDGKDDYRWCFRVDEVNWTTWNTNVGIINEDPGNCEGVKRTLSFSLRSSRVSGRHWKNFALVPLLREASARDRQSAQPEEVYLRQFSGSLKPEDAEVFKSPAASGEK", "experiment": "Whole-cell patch clamp recording, hTRPV1-expressing HEK293T cells", "type": "cell-based", "settings": "capsaicin 100 nM; NGCC 10^3 µM; holding -80 mV", "procedure": "Mouse ASIC1a (mASIC1a) was a kind gift from John A. Wemmie (University of Iowa, IA, USA). For electrophysiological experiments, HEK293T cells were cultured in DMEM supplemented with 10% FBS and 0.2% penicillin/streptomycin and transiently transfected using Lipofectamine 2000 (Invitrogen) with various cDNAs. For TRPV1 channel expression, cells were transfected with hTRPV1, for ASIC1a homomeric channel expression, cells were transfected with mASIC1a. When needed, 0.1–0.2 µg of cDNA encoding tetrameric red fluorescence protein (DsRed) was co-transfected with the cDNA as a marker for successfully transfected cells. For non-transfected cells, cells were transfected with 0.1–0.2 µg of cDNA encoding DsRed alone. The next day, cells were plated onto poly-L-lysine-coated coverslip chips, and fluorescent cells were studied within 1–2 days.\nas §2"}, "hTRPV1 [6]": {"molecular_target": "T2, hTRPV1", "experiment": "Measurement of Ca2+ influx (Fluo-4 AM, FlexStation III) in hTRPV1-expressing cells", "type": "cell-based", "settings": "RR 30 µM or CPZ 1 µM added with agonist", "procedure": "as §3, with “hTRPV1 was constructed by amplification of the hTRPV1 region (NCBI accession number: NG_029716.1) and cloned into pEAK10 vector (Edge Biosystems, Gaithersburg, MD, USA). The hTRPV1 construct was amplified by PCR and the nucleotide sequence of the hTRPV1 gene was confirmed by sequencing with an ABI 3130 DNA genetic analyzer (Applied Biosystems, Foster City, CA, USA). […] After 6 h, transfected cells were seeded onto 96-well black-wall plate (BD Falcon Labware, Franklin Lakes, NJ, USA) for 18–26 h prior to their use in an experiment. The ligand-induced” for “The ligand-induced”"}, "hTRPV1 [7]": {"molecular_target": "T2, hTRPV1", "experiment": "Ca2+ imaging (Fura-2 AM) of hTRPV1-expressing HEK293T cells", "type": "cell-based", "settings": "NGCC 30 µM; RR 30 µM, CPZ 1 µM", "procedure": "hTRPV1 was constructed by amplification of the hTRPV1 region (NCBI accession number: NG_029716.1) and cloned into pEAK10 vector (Edge Biosystems, Gaithersburg, MD, USA). The hTRPV1 construct was amplified by PCR and the nucleotide sequence of the hTRPV1 gene was confirmed by sequencing with an ABI 3130 DNA genetic analyzer (Applied Biosystems, Foster City, CA, USA). […] After 6 h, transfected cells were seeded onto 96-well black-wall plate (BD Falcon Labware, Franklin Lakes, NJ, USA) for 18-26 h prior to their use in an experiment. Mock-transfected HEK293T cells, hTRPV1-expressing HEK293T cells, non-hTRPA1-expressing Flp-In 293 cells, and hTRPA1-expressing Flp-In 293 cells grown in 96-well black-wall plates were rinsed with assay buffer (130 mM NaCl, 10 mM glucose, 5 mM KCl, 2 […]2, 1.2 mM MgCl2, and 10 mM HEPES, pH 7.4) and loaded with 5 μM Fura-2 AM (Invitrogen) for 30 min at 27°C. […] The fluorescence intensities of Fura-2 excited at 340 and 380 nm were simultaneously measured at 510 nm using a computer-controlled filter changer (Lambda DG4; Sutter, San Rafael, CA, USA), an Andor Luca CCD camera (Andor Technology, Belfast, UK), and an inverted fluorescence microscope (IX-71; Olympus, Tokyo, Japan). Intracellular calcium images were recorded every 3-s for 60-s and analyzed using MetaFluor software (Molecular Devices, Sunnyvale, CA, USA)."}}}
{"smiles": "CC(C)c1ccc(NC(=O)Cn2cnc3c2c(=O)n(C)c(=O)n3C)cc1", "note": "[HC-030031]", "values": [{"measurement": "block of NGCC-induced currents in hTRPA1-expressing cells", "setting": "hTRPA1 [1]; HC-030031 100 µM", "result": "almost completely inhibited"}, {"measurement": "block of AITC-induced current", "setting": "hTRPA1 [1]; HC-030031 100 µM preincubation 30 seconds, AITC 100 µM", "result": "partially blocked"}, {"measurement": "normalized current density of NGCC-induced current after wash out of HC-030031", "setting": "hTRPA1 [1]; n = 4", "result": "1.37±0.07"}, {"measurement": "normalized current density of NGCC-induced current under HC-030031", "setting": "hTRPA1 [1]; n = 4", "result": "0.25±0.03"}, {"measurement": "block of NGCC activity on hTRPA1-expressing cells (dose-response)", "setting": "hTRPA1 [2]", "result": "almost blocked NGCC activity"}, {"measurement": "block of AITC activity on hTRPA1-expressing cells (dose-response)", "setting": "hTRPA1 [2]", "result": "partially blocked AITC activity"}, {"measurement": "inhibition of Ca2+ influx induced by 10 µM AITC and 30 µM NGCC in hTRPA1-expressing cells", "setting": "hTRPA1 [3]", "result": "significantly inhibited"}]}
{"smiles": "COc1cc(CNC(=O)CCCC/C=C/C(C)C)ccc1O", "note": "[capsaicin, Capsaicin]", "values": [{"measurement": "effect on the NaCl+Bz CT response at 200 µM", "setting": "[4]; 200 µM", "result": "completely inhibited"}, {"measurement": "concentration giving the maximum increase in the NaCl+Bz CT response", "setting": "[4]", "result": 40, "unit": "µM"}, {"measurement": "inward current in cells expressing hTRPV1", "setting": "hTRPV1 [5]", "result": "induced an inward current"}]}
{"smiles": "N.N.N.N.N.N.N.N.N.N.N.N.N.N.[Cl-].[Cl-].[Cl-].[Cl-].[Cl-].[Cl-].[O-2].[O-2].[Ru+3].[Ru+3].[Ru+4]", "note": "[RR, ruthenium red]", "values": [{"measurement": "block of capsaicin- and NGCC-induced hTRPV1 activation (dose-response)", "setting": "hTRPV1 [6]", "result": "inhibited capsaicin- and NGCC-induced hTRPV1 activation, but was less effective than CPZ"}, {"measurement": "block of NGCC activity on hTRPA1-expressing cells (dose-response)", "setting": "hTRPA1 [2]", "result": "almost blocked NGCC activity"}, {"measurement": "block of AITC activity on hTRPA1-expressing cells (dose-response)", "setting": "hTRPA1 [2]", "result": "partially blocked AITC activity"}, {"measurement": "block of NGCC-induced Ca2+ influx in hTRPV1-expressing cells", "setting": "hTRPV1 [7]", "result": "blocked NGCC activity to baseline levels"}, {"measurement": "inhibition of Ca2+ influx induced by 10 µM AITC and 30 µM NGCC in hTRPA1-expressing cells", "setting": "hTRPA1 [3]", "result": "significantly inhibited"}]}
